Measurements as given in article PMC9535023, “Inhibition of phospholipase D1 induces immunogenic cell death and potentiates cancer immunotherapy in colorectal cancer” (Experimental & Molecular Medicine, 2022).
Read-outs that look alike come from different tables or passages of the source.

Key:
[1] = system: PLD; experiment: PLD activity assay in HCT 116 cells; assay type: cell-based; details: at 10 μM (Fig. 1c)
Protocol: Cells were labeled with [H^3] myristic acid, and PLD activity was assessed by measuring the formation of [H^3] phosphatidylbutanol, which is the product of PLD-mediated transphosphatidylation, in the presence of 1-butanol, as previously described.

[2] = system: DLD1 cells; experiment: Cell cycle analysis (BrdU/7-AAD flow cytometry), DLD1; assay type: cell-based
Protocol: (§1) For cell cycle analysis, the cells were treated with Α3373 or 5-FU. The cells were labeled with 10 μΜ bromodeoxyuridine (BrdU) for 2 h. Subsequently, the cells were stained with 7-aminoactinomycin D (7-AAD, Invitrogen) and a fluorescein isothiocyanate (FITC)-conjugated anti-BrdU antibody (Invitrogen). Apoptotic cells were detected using an Annexin V-FITC Apoptosis Detection Kit (BD Biosciences). The cells were analyzed using BD FACSAria III (BD Biosciences), and data analysis was performed using FlowJo v10.0 (BD Biosciences).

[3] = target: hERG channel (Homo sapiens, UniProt Q12809); experiment: hERG ligand-binding assay; details: HEK293 cells transfected with hERG
Protocol: (§2) Both hERG assays were conducted as described previously.

[4] = system: β-catenin/TCF-4 complex; experiment: Immunoprecipitation of β-catenin/TCF-4; assay type: cell-based; details: 2 μM, 12 h, CRC cells
Protocol: (§3) As previously described, lysates from cells or colorectal cancer (CRC) tissues were analyzed by immunoprecipitation, and/or Western blotting was performed as described previously. The antibodies used are listed in Supplementary Table 5. A polyclonal anti-PLD antibody that recognizes both PLD1 and PLD2 was generated, as previously described. The use of human CRC tissue samples was approved by the Institutional Review Board of Pusan National University, Korea (PNU IRB/2011-6).

[5] = system: CRC cells; experiment: Measurement of HMGB1 release (ELISA); assay type: cell-based
Protocol: (§4) For the quantitative determination of extracellular ATP, the cells were treated with Α3373. Extracellular release of ATP was assessed using the ENLITEN ATP Assay kit (Promega) according to the manufacturer’s instructions. For the HMGB1 level measurement, the supernatants of the cells were prepared by removing insoluble materials by centrifugation at 10,000 × g for 3 min at 4 °C. The levels of HMGB1 were measured using an HMGB1 detection kit (Chondrex) according to the manufacturer’s instructions.

[6] = target: T1, hERG K^+ channel (Homo sapiens, UniProt Q12809); experiment: hERG patch-clamp assay in HEK293 cells transfected with hERG; assay type: cell-based
T1 construct: expressed in transfected cells; host or cells: HEK293
Protocol: as §2

[7] = system: HCT 116 cells; experiment: Immunoblotting of β-catenin and its target genes; assay type: cell-based; details: time- and dose-dependent, 1% serum
Protocol: as §3

[8] = In vivo pharmacokinetics; parameters: species or system mouse; AUCinf: unit not given here; details: for half-life: read-out: t1/2 (terminal half-life) (converted)
Protocol: Supplementary Table 4. Plasma pharmacokinetics of A3373
The pharmacokinetic parameters were estimated with non-compartmental analysis using
PKSolver, based on the concentration- time profiles of A3373 in the plasma samples following
single IV (5 mg/kg) and PO (10 mg/kg) dose in mice (n=3). Abbreviations: T1 /2, elimination
half life; Tmax, time to peak concentration; AUC, area under the concentration–time curve;
MRT, mean residence ti me; Vz, the volume in the terminal state; CL, clearance; Vss, steady-
state volume of distribution; F, absolute bioavailability. […]
Male ICR mice (8 weeks old, 30~35 g) were accli mated to the testing facility in a temperature
and humidity controlled condition for approximately a week prior to the study. 1 mg/mL of
A3373 solution in dimethylacetamide/tween 80/saline (10/10/80 vol%) was dosed orally (10
mg/kg in a volume of 10 mL/kg) or by tail vein injection (5 mg/kg in a volume of 5 mL/kg) to
the animals. About 40 μL of blood samples were collected in BD Microtainer plasma s eparator
tubes at selected times through the saphenous vein over 24 hour s post-dosing. Blood samples
were centrifuged at 6,000 x g for 5 minutes to separat e plasma and stored in a freezer until
analyzed. Protein precipitation was conduct ed on 15 μL aliquot of plas ma samples with 3
volumes of acetonitrile containing glipizide as analytical internal standard. After centrifugation,
the supernatant was analyzed by Agilent 6460 QQQ LC-MS/MS system in a negative MRM
mode. Briefly, chromatography was performed on a Phenomenex Kinetex C18 column (2.1 ×
50 mm, 2.6 μm) with a linear gradient of the mobil e phases 10 mM aqu eous ammonium acetate
and acetonitrile. […]

[9] = system: DLD1 cells; experiment: Apoptosis assay (annexin V flow cytometry), DLD1; assay type: cell-based
Protocol: as §1

[10] = system: 21 purified protein kinases; experiment: Kinase panel assay (KinaseProfiler); assay type: biochemical; details: 1 µM A3373
Protocol: Supplementary materials and methods […]
In vitro kinase activity assays of A3373 were perfo rmed using the 21 kinase KinaseProfilerTM
(eurofins). Kinase activity was determined aft er in cubation with 1 µM A3373, acco rding to the
KinaseProfilerTM Service standard assay protocol s. […]

[11] = system: CRC cells; experiment: Cell migration and invasion assay; assay type: cell-based
Protocol: For the cell migration assay, the cells were added to an 8 μm pore transwell polycarbonate chamber (SPL Life Science). After 24 h of incubation, the number of cells that migrated through the membrane into the lower chamber was counted. For the cell invasion assay, Matrigel (dilution at 1:5; BD Biosciences) was added to the Transwell chambers and incubated for 5 h. The cells were then seeded; after 24 h of incubation, the invaded cells on the bottom of the membrane were fixed with 10% formalin for 20 min and stained with 0.1% crystal violet for 3 h. The extent of invasion was expressed as the average number of cells per microscopic field.

[12] = system: CRC cells; experiment: Measurement of extracellular ATP; assay type: cell-based
Protocol: as §4

[13] = system: HEK293 cells; experiment: TCF transactivation in HEK293 cells; assay type: cell-based; details: Wnt3a 150 ng/mL
[14] = Single oral dose toxicity in mice; details: female and male mice
[15] = male, ICR, mouse, plasma, IV 5 mg/kg, mice
[16] = male, ICR, mouse, plasma, PO 10 mg/kg, mice

Chain of hERG channel (Q12809 whole entry): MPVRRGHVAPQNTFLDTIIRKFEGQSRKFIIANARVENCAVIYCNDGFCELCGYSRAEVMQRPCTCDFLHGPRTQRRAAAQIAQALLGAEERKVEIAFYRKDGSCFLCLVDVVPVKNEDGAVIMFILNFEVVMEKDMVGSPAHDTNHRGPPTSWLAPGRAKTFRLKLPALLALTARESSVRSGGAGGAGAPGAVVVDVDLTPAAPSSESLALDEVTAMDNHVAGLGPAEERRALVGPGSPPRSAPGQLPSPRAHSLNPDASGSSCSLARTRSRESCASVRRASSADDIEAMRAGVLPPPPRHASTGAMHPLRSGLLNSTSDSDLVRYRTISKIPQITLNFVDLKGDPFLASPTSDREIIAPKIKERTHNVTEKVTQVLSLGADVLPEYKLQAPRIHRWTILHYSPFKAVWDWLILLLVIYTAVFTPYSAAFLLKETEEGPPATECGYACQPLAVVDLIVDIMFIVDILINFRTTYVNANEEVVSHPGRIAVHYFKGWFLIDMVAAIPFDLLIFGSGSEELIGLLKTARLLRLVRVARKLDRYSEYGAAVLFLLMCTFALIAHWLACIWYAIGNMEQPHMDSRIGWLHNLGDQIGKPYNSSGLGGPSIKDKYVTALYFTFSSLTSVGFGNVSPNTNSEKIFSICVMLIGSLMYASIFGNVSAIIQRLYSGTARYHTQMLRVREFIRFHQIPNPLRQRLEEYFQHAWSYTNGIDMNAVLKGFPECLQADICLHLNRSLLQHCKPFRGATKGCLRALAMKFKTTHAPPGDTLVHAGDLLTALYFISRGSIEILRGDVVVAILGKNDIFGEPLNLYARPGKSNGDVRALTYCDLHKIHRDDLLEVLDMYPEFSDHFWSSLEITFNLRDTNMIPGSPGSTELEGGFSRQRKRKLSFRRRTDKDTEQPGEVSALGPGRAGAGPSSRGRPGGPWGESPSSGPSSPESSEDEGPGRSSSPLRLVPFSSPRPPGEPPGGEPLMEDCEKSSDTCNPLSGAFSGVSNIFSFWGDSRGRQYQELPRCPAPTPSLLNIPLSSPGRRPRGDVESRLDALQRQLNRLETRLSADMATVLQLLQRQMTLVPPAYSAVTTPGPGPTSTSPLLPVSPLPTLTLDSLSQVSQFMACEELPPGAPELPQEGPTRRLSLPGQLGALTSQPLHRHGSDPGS
T1 sequence (Q12809 whole entry): as above

## O=C(Nc1cc(C(F)(F)F)cc(C(F)(F)F)c1)c1cc2cc(F)ccc2[nH]1 [Compound A3373]
[1]
  PLD activity remained: 20.6%
[2]
  cell cycle / proliferation of CRC cells, in words: significantly decreased the proliferation of CRC cells
[3]
  inhibition at 10 µM: 3.4%
[4]
  endogenous interaction between β-catenin and TCF-4: disrupted the endogenous interaction between β-catenin and TCF-4
[5]
  release of HMGB1, in words: increased the release of HMGB1 in a dose-dependent manner
[6]
  IC50: > 50 µM
[7]
  protein levels of β-catenin and its target genes (PLD1, CD133, CD44, c-Myc, cyclin D1): greatly reduced the protein levels of β-catenin and its target genes
[8]; IV 5 mg/kg, mice, 5 mg/kg
  t1/2 (terminal half-life): 3.2 h
[8]; PO 10 mg/kg, male ICR mice
  AUCinf: 13,647.5 ± 1506.9
  Tmax: 0.5 h
[8]; male, ICR, mouse, plasma, iv, 5 mg/kg, IV 5 mg/kg, mice, read-out: Vss (steady state volume)
  Vd: 2.1 ± 0.1 L/kg
[8]; male, ICR, mouse, plasma, iv, 5 mg/kg, IV 5 mg/kg, mice, read-out: Vz
  Vd: 3.7 L/kg
[8]; male, ICR, mouse, plasma, iv, 5 mg/kg, IV 5 mg/kg, mice
  half-life: ~3.2 h
[8]; male, ICR, mouse, plasma, po, 10 mg/kg, PO 10 mg/kg, mice
  half-life: 3.8 h
[8]; [15]
  AUC(0-inf): 6320 ng·h/mL
  AUC(0-t): 6300 ng·h/mL
  MRT: 2.6 h
[8]; male, ICR, mouse, plasma, IV 5 mg/kg, mice, read-out: CL (clearance) (converted)
  clearance: 13.3 mL/min/kg
[8]; male, ICR, mouse, plasma, PO 10 mg/kg vs IV 5 mg/kg, mice, read-out: F (oral bioavailability)
  bioavailability: 108%
[8]; [16]
  AUC(0-inf): 13600 ng·h/mL
  AUC(0-t): 13500 ng·h/mL
  MRT: 5.6 h
[8]; male, ICR, mouse, plasma, PO 10 mg/kg, mice, read-out: tmax
  Tmax: 0.5 h
[8]; mouse, plasma, PO 10 mg/kg, male ICR mice
  Cmax: 2630 ± 183 ng/mL
[9]
  apoptosis of CRC cells, in words: significantly promoted the apoptosis of CRC cells alone
[10]
  effect on activity of 21 purified protein kinases: no effect
[11]
  Wnt3a-induced migration and invasion: significantly suppressed Wnt3a-induced migration and invasion
[12]
  extracellular ATP, in words: significantly increased extracellular ATP
[13]
  Wnt3a- and β-catenin-induced TCF transactivation: significantly decreased Wnt3a- and β-catenin-induced TCF transactivation
[14]
  approximate lethal dose: over 2000 mg/kg
